# Measurements from ChEMBL document CHEMBL3885881, “DrugMatrix”.
# Organism: Rattus norvegicus
# Assay: DrugMatrix - Regimen: Daily Repeat
# Assay type: toxicity, organism-based, Sprague-Dawley
# Design: regimen Daily Repeat, gender Male, age 6-8 weeks
# Settings: in vivo, po, route oral GAVAGE, vehicle .5 % CMC; for ABSOLUTE BASOPHIL / ABSOLUTE EOSINOPHIL / ABSOLUTE LYMPHOCYTE / ABSOLUTE MONOCYTE / ABSOLUTE SEGMENTED NEUTROPHIL / BASOPHIL / EOSINOPHIL / ERYTHROCYTE COUNT / HEMATOCRIT / HEMOGLOBIN / LEUKOCYTE COUNT / LYMPHOCYTE / MEAN CORPUSCULAR HEMOGLOBIN / MEAN CORPUSCULAR HEMOGLOBIN CONCENTRATION / MEAN CORPUSCULAR VOLUME / MONOCYTE / NEUTROPHIL / NUCLEATED RED BLOOD CELLS / PLATELET COUNT: tissue Blood; for ALANINE AMINOTRANSFERASE / ALBUMIN / ALKALINE PHOSPHATASE / ASPARTATE AMINOTRANSFERASE / BLOOD UREA NITROGEN / CARBON DIOXIDE / CHLORIDE / CHOLESTEROL / CREATINE PHOSPHOKINASE / CREATININE / GLUCOSE / LACTATE DEHYDROGENASE / LIPASE / PHOSPHORUS / POTASSIUM / SODIUM / TOTAL BILIRUBIN / TOTAL PROTEIN / URIC ACID: tissue Plasma
# [1] = 44 mg/kg, 120 h, dose level Low, time 5 day
# [2] = 439 mg/kg, 72 h, dose level High, time 3 day
# [3] = 439 mg/kg, 120 h, dose level High, time 5 day
smiles,measurement,setting,value
Brc1ccccc1 [BROMOBENZENE],ABSOLUTE BASOPHIL,[1],0 CELLS/uL
same,ABSOLUTE EOSINOPHIL,[1],0 CELLS/uL
same,ABSOLUTE LYMPHOCYTE,[1],9552.67 CELLS/uL
same,ABSOLUTE MONOCYTE,[1],143.67 CELLS/uL
same,ABSOLUTE SEGMENTED NEUTROPHIL,[1],903.67 CELLS/uL
same,BASOPHIL,[1],0%
same,EOSINOPHIL,[1],0%
same,ERYTHROCYTE COUNT,[1],5.33 x10E6/uL
same,HEMATOCRIT,[1],32.83%
same,HEMOGLOBIN,[1],12.7 G/DL
same,LEUKOCYTE COUNT,[1],10.6 x10E3/uL
same,LYMPHOCYTE,[1],90%
same,MEAN CORPUSCULAR HEMOGLOBIN,[1],23.83 pg
same,MEAN CORPUSCULAR HEMOGLOBIN CONCENTRATION,[1],38.7 G/DL
same,MEAN CORPUSCULAR VOLUME,[1],61.57 fL
same,MONOCYTE,[1],1.33%
same,NEUTROPHIL,[1],8.67%
same,NUCLEATED RED BLOOD CELLS,[1],0 /100WBC
same,PLATELET COUNT,[1],1057.33 x10E3/uL
same,ALANINE AMINOTRANSFERASE,[1],40.67 u/L
same,ALBUMIN,[1],4.3 G/DL
same,ALKALINE PHOSPHATASE,[1],334.67 u/L
same,ASPARTATE AMINOTRANSFERASE,[1],69.67 u/L
same,BLOOD UREA NITROGEN,[1],14.67 mg/dL
same,CARBON DIOXIDE,[1],26.33 mmol/L
same,CHLORIDE,[1],101.67 MEQ/L
same,CHOLESTEROL,[1],64.33 mg/dL
same,CREATINE PHOSPHOKINASE,[1],162.67 u/L
same,CREATININE,[1],0.24 mg/dL
same,GLUCOSE,[1],160 mg/dL
same,LACTATE DEHYDROGENASE,[1],86.67 u/L
same,LIPASE,[1],9.33 u/L
same,PHOSPHORUS,[1],11.83 mg/dL
same,POTASSIUM,[1],6.35 MEQ/L
same,SODIUM,[1],144.7 MEQ/L
same,TOTAL BILIRUBIN,[1],0.1 mg/dL
same,TOTAL PROTEIN,[1],6.2 G/DL
same,URIC ACID,[1],1.67 mg/dL
same,ABSOLUTE BASOPHIL,[2],0 CELLS/uL
same,ABSOLUTE EOSINOPHIL,[2],46.33 CELLS/uL
same,ABSOLUTE LYMPHOCYTE,[2],10833.67 CELLS/uL
same,ABSOLUTE MONOCYTE,[2],138 CELLS/uL
same,ABSOLUTE SEGMENTED NEUTROPHIL,[2],1815.33 CELLS/uL
same,BASOPHIL,[2],0%
same,EOSINOPHIL,[2],0.33%
same,ERYTHROCYTE COUNT,[2],4.81 x10E6/uL
same,HEMATOCRIT,[2],30.27%
same,HEMOGLOBIN,[2],11.9 G/DL
same,LEUKOCYTE COUNT,[2],12.83 x10E3/uL
same,LYMPHOCYTE,[2],85.33%
same,MEAN CORPUSCULAR HEMOGLOBIN,[2],24.7 pg
same,MEAN CORPUSCULAR HEMOGLOBIN CONCENTRATION,[2],39.3 G/DL
same,MEAN CORPUSCULAR VOLUME,[2],62.83 fL
same,MONOCYTE,[2],1%
same,NEUTROPHIL,[2],13.33%
same,NUCLEATED RED BLOOD CELLS,[2],0.33 /100WBC
same,PLATELET COUNT,[2],1082.33 x10E3/uL
same,ALANINE AMINOTRANSFERASE,[2],59 u/L
same,ALBUMIN,[2],4.17 G/DL
same,ALKALINE PHOSPHATASE,[2],378.33 u/L
same,ASPARTATE AMINOTRANSFERASE,[2],83.67 u/L
same,BLOOD UREA NITROGEN,[2],15 mg/dL
same,CARBON DIOXIDE,[2],29.33 mmol/L
same,CHLORIDE,[2],100.67 MEQ/L
same,CHOLESTEROL,[2],84.67 mg/dL
same,CREATINE PHOSPHOKINASE,[2],171 u/L
same,CREATININE,[2],0.22 mg/dL
same,GLUCOSE,[2],160 mg/dL
same,LACTATE DEHYDROGENASE,[2],172 u/L
same,LIPASE,[2],12 u/L
same,PHOSPHORUS,[2],12.47 mg/dL
same,POTASSIUM,[2],6.1 MEQ/L
same,SODIUM,[2],143.47 MEQ/L
same,TOTAL BILIRUBIN,[2],0.13 mg/dL
same,TOTAL PROTEIN,[2],5.97 G/DL
same,URIC ACID,[2],1.03 mg/dL
same,ABSOLUTE BASOPHIL,[3],0 CELLS/uL
same,ABSOLUTE EOSINOPHIL,[3],0 CELLS/uL
same,ABSOLUTE LYMPHOCYTE,[3],9268 CELLS/uL
same,ABSOLUTE MONOCYTE,[3],132.4 CELLS/uL
same,ABSOLUTE SEGMENTED NEUTROPHIL,[3],919.6 CELLS/uL
same,BASOPHIL,[3],0%
same,EOSINOPHIL,[3],0%
same,ERYTHROCYTE COUNT,[3],5.45 x10E6/uL
same,HEMATOCRIT,[3],32.3%
same,HEMOGLOBIN,[3],12.54 G/DL
same,LEUKOCYTE COUNT,[3],10.32 x10E3/uL
same,LYMPHOCYTE,[3],89.6%
same,MEAN CORPUSCULAR HEMOGLOBIN,[3],23 pg
same,MEAN CORPUSCULAR HEMOGLOBIN CONCENTRATION,[3],38.82 G/DL
same,MEAN CORPUSCULAR VOLUME,[3],59.26 fL
same,MONOCYTE,[3],1.2%
same,NEUTROPHIL,[3],9.2%
same,NUCLEATED RED BLOOD CELLS,[3],0.2 /100WBC
same,PLATELET COUNT,[3],1078.8 x10E3/uL
same,ALANINE AMINOTRANSFERASE,[3],43.2 u/L
same,ALBUMIN,[3],4.4 G/DL
same,ALKALINE PHOSPHATASE,[3],375.2 u/L
same,ASPARTATE AMINOTRANSFERASE,[3],72.8 u/L
same,BLOOD UREA NITROGEN,[3],16.2 mg/dL
same,CARBON DIOXIDE,[3],25.2 mmol/L
same,CHLORIDE,[3],102.4 MEQ/L
same,CHOLESTEROL,[3],77.2 mg/dL
same,CREATINE PHOSPHOKINASE,[3],262.4 u/L
same,CREATININE,[3],0.2 mg/dL
same,GLUCOSE,[3],153.6 mg/dL
same,LACTATE DEHYDROGENASE,[3],118.8 u/L
same,LIPASE,[3],9.6 u/L
same,PHOSPHORUS,[3],12.5 mg/dL
same,POTASSIUM,[3],6.84 MEQ/L
same,SODIUM,[3],144.22 MEQ/L
same,TOTAL BILIRUBIN,[3],0.18 mg/dL
same,TOTAL PROTEIN,[3],6.18 G/DL
same,URIC ACID,[3],1.92 mg/dL
